For data set [1], the target named is T1, YhjE (Escherichia coli, UniProt P37643).
T1 sequence (P37643 1-440): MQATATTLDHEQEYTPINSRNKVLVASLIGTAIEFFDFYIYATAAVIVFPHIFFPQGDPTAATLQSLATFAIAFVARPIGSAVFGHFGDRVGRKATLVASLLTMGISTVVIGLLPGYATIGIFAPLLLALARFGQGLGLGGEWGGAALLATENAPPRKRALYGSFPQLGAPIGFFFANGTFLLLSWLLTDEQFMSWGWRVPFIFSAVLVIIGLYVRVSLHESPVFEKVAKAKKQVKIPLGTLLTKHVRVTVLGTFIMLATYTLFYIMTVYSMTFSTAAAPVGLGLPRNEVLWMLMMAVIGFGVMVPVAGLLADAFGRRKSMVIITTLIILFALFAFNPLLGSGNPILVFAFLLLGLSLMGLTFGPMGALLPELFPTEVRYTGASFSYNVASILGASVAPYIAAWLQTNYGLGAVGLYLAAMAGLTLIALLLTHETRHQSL
Kind of data set: inhibition of L-[3H]isoleucine uptake into whole cells, […] min. The data set is classed as cell-based. Conditions: 50 μM L-[3H]isoleucine, M9 + 0.2% glucose, 37 °C; B2394[pBR-yhjE]; single replicate.

The target in another data set is T2, BrnQ (Escherichia coli, UniProt P0AD99).
T2 construct: native chromosomal gene, sole carrier in livKHMGF yhjE double mutant cells
T2 sequence (P0AD99 whole entry): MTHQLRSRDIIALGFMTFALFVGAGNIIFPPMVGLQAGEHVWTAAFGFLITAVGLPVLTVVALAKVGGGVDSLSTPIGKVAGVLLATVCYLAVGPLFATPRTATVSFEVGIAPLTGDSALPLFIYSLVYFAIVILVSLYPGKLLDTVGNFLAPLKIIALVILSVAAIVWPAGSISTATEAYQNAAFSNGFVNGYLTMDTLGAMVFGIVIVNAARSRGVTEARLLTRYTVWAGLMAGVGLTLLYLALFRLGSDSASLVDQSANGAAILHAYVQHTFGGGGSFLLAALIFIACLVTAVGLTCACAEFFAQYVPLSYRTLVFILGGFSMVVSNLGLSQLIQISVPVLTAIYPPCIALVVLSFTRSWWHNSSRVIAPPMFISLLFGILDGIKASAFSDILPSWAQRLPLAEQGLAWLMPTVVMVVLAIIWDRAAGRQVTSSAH
Kind of data set: radiolabelled uptake into whole cells, […] min. The data set is classed as cell-based. Conditions: sole carrier strain, M9 + 0.2% glucose, 37 °C; labelled compound.

For data set [2], the target named is YhjE (Escherichia coli, UniProt P37643, T276I). Kind of data set: radiolabelled uptake into whole cells, […] min. The settings on record: 50 μM substrate, M9 + 0.2% glucose, 37 °C; B2933 with mutant pBR-yhjE; labelled compound. The data set is classed as cell-based.
Chain of YhjE (Escherichia coli, UniProt P37643, T276I) (P37643 whole entry T276I): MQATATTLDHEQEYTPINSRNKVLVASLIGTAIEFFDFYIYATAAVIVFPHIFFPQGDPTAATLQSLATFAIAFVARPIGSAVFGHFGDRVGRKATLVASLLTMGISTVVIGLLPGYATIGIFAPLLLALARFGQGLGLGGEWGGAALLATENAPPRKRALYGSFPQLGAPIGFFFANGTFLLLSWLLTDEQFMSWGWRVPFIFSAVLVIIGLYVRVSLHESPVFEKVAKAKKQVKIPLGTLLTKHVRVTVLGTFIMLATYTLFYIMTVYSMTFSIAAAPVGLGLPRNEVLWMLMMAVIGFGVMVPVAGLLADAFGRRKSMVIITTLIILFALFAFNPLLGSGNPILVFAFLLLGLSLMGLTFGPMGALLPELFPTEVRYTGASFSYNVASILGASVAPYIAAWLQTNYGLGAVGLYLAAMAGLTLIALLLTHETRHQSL
In another data set the target is T3, LIV-I (LivJFGHM) (Escherichia coli, UniProt P0AD96).
T3 construct: gene livJ; native chromosomal genes, sole carrier in brnQ yhjE double mutant cells
T3 sequence (P0AD96 24-367): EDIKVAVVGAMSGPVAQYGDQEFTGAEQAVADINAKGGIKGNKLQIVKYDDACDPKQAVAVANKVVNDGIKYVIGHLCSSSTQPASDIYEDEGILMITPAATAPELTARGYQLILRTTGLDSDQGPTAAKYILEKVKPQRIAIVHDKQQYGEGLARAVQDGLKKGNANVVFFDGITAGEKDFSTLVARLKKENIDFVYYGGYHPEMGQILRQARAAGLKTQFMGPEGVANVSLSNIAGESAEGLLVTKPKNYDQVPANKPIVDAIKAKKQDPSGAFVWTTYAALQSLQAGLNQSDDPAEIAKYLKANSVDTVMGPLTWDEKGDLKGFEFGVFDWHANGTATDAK
T3 sequence (P0AEX7 whole entry partner): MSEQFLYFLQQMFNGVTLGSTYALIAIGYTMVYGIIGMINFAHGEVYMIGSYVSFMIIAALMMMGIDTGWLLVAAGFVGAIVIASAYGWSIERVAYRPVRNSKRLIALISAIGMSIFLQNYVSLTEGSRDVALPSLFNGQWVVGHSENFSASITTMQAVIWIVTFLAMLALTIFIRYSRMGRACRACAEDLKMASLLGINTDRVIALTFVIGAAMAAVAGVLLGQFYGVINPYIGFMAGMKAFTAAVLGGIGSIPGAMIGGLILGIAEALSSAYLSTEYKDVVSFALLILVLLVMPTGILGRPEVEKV
T3 sequence (P22729 whole entry partner): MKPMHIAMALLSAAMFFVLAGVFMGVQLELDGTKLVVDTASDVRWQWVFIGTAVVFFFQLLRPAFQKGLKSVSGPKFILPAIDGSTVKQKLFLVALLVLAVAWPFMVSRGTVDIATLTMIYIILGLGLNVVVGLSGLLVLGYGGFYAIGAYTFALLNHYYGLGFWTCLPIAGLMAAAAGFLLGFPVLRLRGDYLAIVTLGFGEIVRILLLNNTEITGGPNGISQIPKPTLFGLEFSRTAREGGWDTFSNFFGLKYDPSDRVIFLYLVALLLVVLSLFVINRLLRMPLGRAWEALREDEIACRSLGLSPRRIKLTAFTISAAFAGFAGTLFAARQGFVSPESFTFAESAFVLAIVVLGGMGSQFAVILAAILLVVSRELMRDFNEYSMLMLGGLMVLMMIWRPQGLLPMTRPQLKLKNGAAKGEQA
T3 sequence (P22731 whole entry partner): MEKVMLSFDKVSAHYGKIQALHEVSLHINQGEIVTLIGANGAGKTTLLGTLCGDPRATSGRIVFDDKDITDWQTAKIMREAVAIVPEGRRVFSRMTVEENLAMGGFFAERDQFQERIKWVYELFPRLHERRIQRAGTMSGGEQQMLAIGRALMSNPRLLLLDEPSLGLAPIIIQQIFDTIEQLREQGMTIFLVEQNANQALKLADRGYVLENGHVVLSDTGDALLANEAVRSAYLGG
T3 sequence (P0A9S7 whole entry partner): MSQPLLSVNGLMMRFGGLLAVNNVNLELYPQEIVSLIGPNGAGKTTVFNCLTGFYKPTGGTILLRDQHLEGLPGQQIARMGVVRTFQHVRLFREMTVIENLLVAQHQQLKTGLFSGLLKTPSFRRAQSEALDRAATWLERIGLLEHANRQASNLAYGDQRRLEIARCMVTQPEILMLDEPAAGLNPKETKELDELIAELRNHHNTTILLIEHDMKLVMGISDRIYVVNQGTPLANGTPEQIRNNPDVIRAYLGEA
Description: radiolabelled uptake into whole cells, […] min. The data set is classed as cell-based. The settings on record: sole carrier strain, M9 + 0.2% glucose, 37 °C; labelled compound.

The target in data set [3] is YhjE (Escherichia coli, UniProt P37643, S271F/V290M). Kind of data set: radiolabelled uptake into whole cells, […] min. The data set is classed as cell-based. The settings on record: 50 μM substrate, M9 + 0.2% glucose, 37 °C; B2933 with mutant pBR-yhjE; labelled compound.
Chain of YhjE (Escherichia coli, UniProt P37643, S271F/V290M) (P37643 whole entry S271F/V290M): as the sequence (P37643 whole entry T276I) above, with S271F, I276T, V290M counted along it
In data set [4] the target is YhjE (Escherichia coli, UniProt P37643, P55S). Kind of data set: radiolabelled uptake into whole cells, […] min. Conditions: 50 μM substrate, M9 + 0.2% glucose, 37 °C; B2933 with mutant pBR-yhjE; labelled compound. The data set is classed as cell-based.
Chain of YhjE (Escherichia coli, UniProt P37643, P55S) (P37643 whole entry P55S): as the sequence (P37643 whole entry T276I) above, with P55S, I276T counted along it
The target in data set [5] is YhjE (Escherichia coli, UniProt P37643, T273I). Description: radiolabelled uptake into whole cells, […] min. The data set is classed as cell-based. Conditions: 50 μM substrate, M9 + 0.2% glucose, 37 °C; B2933 with mutant pBR-yhjE; labelled compound.
Chain of YhjE (Escherichia coli, UniProt P37643, T273I) (P37643 whole entry T273I): as the sequence (P37643 whole entry T276I) above, with T273I, I276T counted along it
In data set [6] the target is YhjE (Escherichia coli, UniProt P37643, M359I). Description: radiolabelled uptake into whole cells, […] min. The data set is classed as cell-based. The settings on record: 50 μM substrate, M9 + 0.2% glucose, 37 °C; B2933 with mutant pBR-yhjE; labelled compound.
Chain of YhjE (Escherichia coli, UniProt P37643, M359I) (P37643 whole entry M359I): as the sequence (P37643 whole entry T276I) above, with I276T, M359I counted along it
Substrate in data set [7]: CC[C@H](C)[C@H](N)C(=O)O
Description: radiolabelled uptake into whole cells. The settings on record: M9 + 0.2% glucose, 37 °C, B2933[pUC-yhjE], proton symport, labelled compound. The data set is classed as cell-based, Escherichia coli.

Substrate in data set [8]: CC(C)[C@H](N)C(=O)O
Description: radiolabelled uptake into whole cells. The settings on record: M9 + 0.2% glucose, 37 °C, B2933[pUC-yhjE], proton symport, labelled compound. The data set is classed as cell-based, Escherichia coli.

Consider `N[C@@H](CS)C(=O)O` [L-cysteine], for which, on YhjE [1], the “% inhibition at 30-fold molar excess” value is “L-tyrosine and L-cysteine, which are structurally unrelated to branched-chain amino acids, produced pronounced inhibitory effects”.
Consider `CC[C@H](C)[C@H](N)C(=O)O` [L-isoleucine], for which the uptake rate result on BrnQ was “Comparison of L-isoleucine–specific activity of YhjE, LIV-I, and BrnQ”; at YhjE [2], “L-isoleucine uptake was concomitantly reduced”; at LIV-I (LivJFGHM) it was “Comparison of L-isoleucine–specific activity of YhjE, LIV-I, and BrnQ”; at YhjE [3] it was “L-isoleucine uptake was concomitantly reduced”; on YhjE [4], “L-isoleucine uptake was concomitantly reduced”; at YhjE [5], “L-isoleucine uptake was concomitantly reduced”. Moreover, the uptake rate result at YhjE [6] is “L-isoleucine uptake was concomitantly reduced”.
Take `CC(C)C[C@H](N)C(=O)O` [L-leucine]: the uptake rate result at YhjE [2] is “The lowest effect was observed for the T276I substitution”; at YhjE [3] it was “In every case, L-leucine uptake was elevated relative to cells harboring the wild-type pBR-yhjE”; at YhjE [4] it was “In every case, L-leucine uptake was elevated relative to cells harboring the wild-type pBR-yhjE”; at YhjE [5], “In every case, L-leucine uptake was elevated relative to cells harboring the wild-type pBR-yhjE”; at YhjE [6], “YhjE M359I variant exhibited L-leucine transport activity more than twofold higher than the wild type”.
Turning to `N[C@@H](Cc1ccc(O)cc1)C(=O)O` [L-tyrosine], the “% inhibition at 30-fold molar excess” value on YhjE [1] was “L-tyrosine and L-cysteine, which are structurally unrelated to branched-chain amino acids, produced pronounced inhibitory effects”.
Take `CC(C)[C@H](N)C(=O)O` [L-valine]: the uptake rate result on BrnQ was “Comparison of L-valine–specific activity of YhjE, LIV-I, and BrnQ”.

B1: YhjE (Escherichia coli K-12) (protein)
chain: MQATATTLDHEQEYTPINSRNKVLVASLIGTAIEFFDFYIYATAAVIVFPHIFFPQGDPTAATLQSLATFAIAFVARPIGSAVFGHFGDRVGRKATLVASLLTMGISTVVIGLLPGYATIGIFAPLLLALARFGQGLGLGGEWGGAALLATENAPPRKRALYGSFPQLGAPIGFFFANGTFLLLSWLLTDEQFMSWGWRVPFIFSAVLVIIGLYVRVSLHESPVFEKVAKAKKQVKIPLGTLLTKHVRVTVLGTFIMLATYTLFYIMTVYSMTFSTAAAPVGLGLPRNEVLWMLMMAVIGFGVMVPVAGLLADAFGRRKSMVIITTLIILFALFAFNPLLGSGNPILVFAFLLLGLSLMGLTFGPMGALLPELFPTEVRYTGASFSYNVASILGASVAPYIAAWLQTNYGLGAVGLYLAAMAGLTLIALLLTHETRHQSL
On to B1, for which the Km – broadly, the concentration of substrate that gives half-maximal velocity – in data set [7] came out at 70.5 µM; in data set [8], 86.7 µM.

The record behind these values is PMC12708883 (Frontiers in Microbiology, 2025).
